Laboratory results from patent US20220257706A1, “EPIDERMAL GROWTH FACTOR RECEPTOR (EGFR) LIGANDS” (NANYANG TECHNOLOGICAL UNIVERSITY, priority 2019, published 2022).

Key:
[1] = system: HUVEC-CS cells; test: Endothelial tube formation assay; type: cell-based; settings: data not shown
Description: Endothelial tube formation assay was performed using a μ-slide (ibidi, Germany). Briefly, 10 μL of gel matrix (BD Matrigel™ Basement Membrane Matrix) was casted onto each μ-slide well and left to solidify. […] After incubation for 2 h, the wells were photographed using inverted phase-contrast microscope. Images were analyzed for the numbering of branching points using the Wimasis image analysis platform.

[2] = system: c-fos; test: Gene expression analysis (qPCR) of c-fos in HaCaT cells; type: cell-based, human; settings: 2 h treatment
Description: (§1) Total RNA was extracted from HaCaT and primary human keratinocytes using PureLink™ RNA mini kit (Thermo Fisher Scientific, US). First-strand cDNA was synthesised from 600 ng of total RNA using SuperScript™ II Reverse Transcriptase and Oligo(dT)12-18 (Thermo Fisher Scientific, US) according to the manufacturer's instructions. Quantitative PCR (qPCR) was performed with iTaq Universal SYBR Green Supermix (Bio-Rad, US) on a CFX96 Touch Real-Time PCR Detection System (Bio-Rad, US) for 40 cycles. PCR reaction (20 μL): 3 μL cDNA, 1 μL primer mix (10 μM), 6 μL DEPC-treated water and 10 μL mastermix. […] GAPDH was used as a housekeeping gene for normalization. Fold changes of gene expressions with c-fos and c-Jun were calculated using the 2^−ΔΔCT method.

[3] = system: newborn ICR mice; test: Newborn mice model for incisor eruption; type: in vivo, mouse; settings: 3 mg/kg subcutaneous, five consecutive days; saline control 153 h
Description: ICR mice were obtained from Vital Rital Laboratories (Beijing, China). […] All experiments were approved and performed in accordance with the institutional guidelines of the Experimental Animal Center of the Chinese Academy of Medical Science (Beijing, China). Subcutaneous injections were made for five consecutive days in the nape of the neck of the newborn mice starting from the day of birth (day 0). […] Incisor eruption was recorded daily by visual inspection. Incisor eruption was defined as the time at which a given tooth first pierced the oral epithelium.

[4] = system: C57BL/6 mice; test: Full-thickness splinted excisional wound healing in C57BL/6 mice; type: in vivo, mouse; settings: topical, three consecutive days; bleogen pB1 10 nmol/wound, EGF 1 nmol/wound; vs saline
Description: C57BL/6 mice were obtained from Vital Rital Laboratories (Beijing, China). […] All experiments were approved and performed in accordance with the institutional guidelines of the Experimental Animal Center of the Chinese Academy of Medical Science (Beijing, China).
(§2) Full-thickness 5-mm splinted excisional wounding of mice was performed. Briefly, mice were anesthetized using an intraperitoneal injection of sodium pentobarbital (50 mg kg^−1). The hair of the back was shaved with an electric clipper followed by a depilatory cream. Using a 5-mm-diameter sterile biopsy punch, symmetrical full-thickness excisional wounds were created. Splints were placed around the wound using adhesive glue and secured with four interrupted sutures. The wounds and splints were covered with Tegaderm (3M, US). At indicated days within the 14 days post-injury course, wound diameters were measured. The size of wound was calculated from the average of two diameter measurements along the x and y axis.
Full-thickness 5 mm splinted excisional wounding of mice was performed on C57BL/6 mice as described above.

[5] = system: serum response element (SRE); test: SRE luciferase reporter assay in stable HaCaT cells; type: cell-based, human; settings: 6 h incubation
Description: (§3) HaCaT (human keratinocyte), HUVEC-CS (endothelial cells) cells were cultured in Dulbecco's modification of Eagle's medium (DMEM) supplemented with 10% fetal bovine serum and 100 U/mL of penicillin and streptomycin. Normal Human Epidermal Keratinocytes adult purchased from Lifeline® cell technology were cultured in Lifeline® DermaLife K Medium. They were grown in a 5% CO2 humidified incubator at 37° C. HaCaT cells were stably transfected with pGL4.33[luc2P/SRE/Hygro] (Promega) and selected using 250 μg/mL hygromycin. Stable HaCaT cells expressing SRE luciferase reporter were maintained with 250 μg/mL hygromycin.
Briefly, the cells were cultured in a white 96-well plates to achieve 90% confluency. […] The luciferase assay was performed using the ONE-Glo EX Luciferase Assay System (Promega, US) as per the manufacturer's instructions. Luminescence was measured using a microplate reader (Tecan Infinite® 200 Pro, Switzerland).

[6] = system: HaCaT cells; type: cell-based, human
Description: as §3
Cell proliferation was determined using crystal violet staining. […] 3417-Da-peptide aB1 is a CRP isolated from Achyranthes bidentata with the amino acid sequence […] (SEQ ID NO:11). Crystal violet staining was performed as previously described. Briefly, after the incubation period, the wells were fixed with 4% buffered paraformaldehyde for 20 min. The cells were then stained with 0.25% crystal violet in 20% methanol for 15 min. The excess crystal violet stain was rinsed with distilled water for 4-5 times and air-dried. Glacial acetic acid (10%) in Milli-Q water was added to extract the crystal violet stain. The absorbance was then measured at 595 nm using a microplate reader (Tecan Infinite® 200 Pro, Switzerland).

[7] = system: c-Jun; test: Gene expression analysis (qPCR) of c-Jun in HaCaT cells; type: cell-based, human; settings: 2 h treatment
Description: as §1

[8] = system: pepsin, trypsin, pronase, human neutrophil elastase; test: Proteolytic stability against a panel of proteases; settings: human
Description: Samples were collected at various time points.
(§4) All collected samples from various stability assays were analyzed by RP-HPLC with a linear gradient of mobile phase A (0.05% TFA/H2O) and mobile phase B (0.05% TFA/ACN) on aeris peptide XB-C18 column (Phenomenex, US). The resulting peaks were collected and identified by MALDI-TOF MS. The results were expressed as percentage of initial concentration using the peak area of the HPLC profile.

[9] = system: STZ-induced diabetic C57BL/6 mice; test: Full-thickness splinted excisional wound healing in streptozotocin-induced diabetic C57BL/6 mice; type: in vivo, mouse; settings: 1 nmol/wound topical, five consecutive days
Description: as §2
Diabetes was induced into C57BL/6 mice by two intraperitoneal injection (80 mg/kg) of STZ at day 1 and 5. Starting from day 8, blood glucose was monitored regularly for two weeks. […] Blood glucose was also monitored at day 14 post-injury to ensure the mice are diabetic.

[10] = Human serum stability; settings: 25% human serum
Description: The test samples were incubated at 37° C. Samples were collected at various time points. The collected samples were subjected to protein precipitation with 100% ethanol and centrifugation at 180,000 g for 5 min at 4° C. The supernatant was collected for analysis.
as §4

CC[C@H](C)[C@@H]1NC(=O)[C@H](CCC(=O)O)NC(=O)[C@H]([C@@H](C)O)NC(=O)[C@@H]2CSSC[C@@H]3NC(=O)[C@H](Cc4ccccc4)NC(=O)[C@H](CC(N)=O)NC(=O)[C@H](CO)NC(=O)[C@H](CSSC[C@H](NC(=O)[C@@H](N)CCC(N)=O)C(=O)N[C@@H](CCCCN)C(=O)N4CCC[C@H]4C(=O)N[C@@H](CC(N)=O)C(=O)NCC(=O)N[C@@H](C)C(=O)N[C@@H](CCCCN)C(=O)N2)NC(=O)[C@H](CSSC[C@@H](C(=O)N[C@@H](C)C(=O)N[C@@H](CC(N)=O)C(=O)N[C@@H](CCCNC(=N)N)C(=O)O)NC(=O)[C@H]([C@@H](C)O)NC(=O)CNC(=O)[C@H](CO)NC(=O)[C@H](CCCCN)NC(=O)[C@H](CCC(N)=O)NC(=O)CNC(=O)[C@H](C)NC(=O)[C@H](Cc2ccc(O)cc2)NC(=O)[C@H](CCCNC(=N)N)NC(=O)[C@H](CC(C)C)NC3=O)NC(=O)[C@@H]2CCCN2C(=O)[C@@H]2CCCN2C(=O)[C@H]([C@@H](C)CC)NC(=O)[C@H](CO)NC1=O [bleogen pB1]
endothelial cell tube formation [1]: accelerate | mRNA expression of c-fos [2]: significantly upregulate | time of incisor eruption in newborn mice [3]: 125 h | wound healing, full-thickness excision wound model in C57 mice [4]: accelerated wound healing from day 3 to day 11 | SRE-luciferase activity [5]: dose-dependently, increases the luciferase activity | proliferative activities on HaCaT cells, native versus synthetic [6]: identical proliferative activities | EC50 ([6]; 72 h): 130 nM | difference in mitogenic potency between EGF and pB1 ([6]; HaCaT cell proliferation EC50): 100 fold | EGFR dependence of proliferative/mitogenic effect ([6]; co-incubation with EGFR neutralizing antibody (clone LA1)): EGFR-dependent | mRNA expression of c-Jun [7]: significantly upregulate | half-life at 0.1 M [8]: > 0.347 days | wound healing rate vs vehicle control in STZ-induced diabetic mice [9]: healed at a significantly faster rate starting from day 4 post-injury | half-life at 0.1 M [10]: > 33.3 days
